Patent US20080153896A1, “Polymorphic Forms of an HMG-CoA Reductase Inhibitor and Uses Thereof” (priority 2006, published 2008)

Test: Stability (integrity) testing of amorphous and polymorphic form under storage conditions, RP-HPLC
Assay type: physicochemical
Parameters: key to Impurity RRT 0.738 / Impurity RRT 0.949 / Impurity RRT 1.050 / Impurity RRT 1.550 / Impurity RRT 0.136 / Impurity RRT 0.720 / Impurity RRT 0.706 / Impurity RRT 1.18 / Impurity RRT 1.826: % of total UV absorption (HPLC peak area)
Summary of the method: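 Amorphous form and three batches of polymorphic Form I of the hemi calcium salt were stored under different atmospheric conditions. Purity measured by RP-HPLC on C18 with UV detection, drug as percent of total absorption; total impurity from summed impurity peak areas, impurities identified by relative retention time.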

[1] = 25° C./60% RH 3M, hemi calcium salt
[2] = 25° C./60% RH 9M, hemi calcium salt

CC(C)c1c(C(=O)Nc2ccc(CO)cc2)c(-c2ccccc2)c(-c2ccc(F)cc2)n1CC[C@@H](O)C[C@@H](O)CC(=O)[O-].CC(C)c1c(C(=O)Nc2ccc(CO)cc2)c(-c2ccccc2)c(-c2ccc(F)cc2)n1CC[C@@H](O)C[C@@H](O)CC(=O)[O-].[Ca+2] [PP00405, (3R, 5R)-7-[2-(4-fluorophenyl)-5-isopropyl-3-phenyl-4-[(4-hydroxymethylphenylamino)carbonyl]-pyrrol-1-yl]-3,5-dihydroxy-heptanoic acid, hemi calcium salt]
Description (5° C. 1M): White
Impurity RRT 1.094 (5° C. 1M): 0.157
Impurity RRT 1.437 (5° C. 1M): 0.155
Impurity RRT 1.593 (5° C. 1M): 0.082
Impurity RRT 1.694 (5° C. 1M): 0.069
Assay (5° C. 1M, hemi calcium salt): 98.31 % W/W
Highest Impurity (5° C. 1M, hemi calcium salt): 0.360
Impurity RRT 0.935 (5° C. 1M, hemi calcium salt): 0.360
Impurity RRT 1.045 (5° C. 1M, hemi calcium salt): 0.357
Impurity RRT 1.64 (5° C. 1M, hemi calcium salt): 0.057
Total Impurity (5° C. 1M, hemi calcium salt): 1.237
Water (5° C. 1M, hemi calcium salt): 4.81 % W/W
Description (5° C. 2M): White
Impurity RRT 1.094 (5° C. 2M): 0.161
Impurity RRT 1.180 (5° C. 2M): 0.048
Impurity RRT 1.437 (5° C. 2M): 0.164
Impurity RRT 1.593 (5° C. 2M): 0.085
Impurity RRT 1.694 (5° C. 2M): 0.067
Assay (5° C. 2M, hemi calcium salt): 98.25 % W/W
Highest Impurity (5° C. 2M, hemi calcium salt): 0.380
Impurity RRT 0.935 (5° C. 2M, hemi calcium salt): 0.380
Impurity RRT 1.045 (5° C. 2M, hemi calcium salt): 0.375
Impurity RRT 1.64 (5° C. 2M, hemi calcium salt): 0.051
Total Impurity (5° C. 2M, hemi calcium salt): 1.33
Water (5° C. 2M, hemi calcium salt): 4.61 % W/W
Description (5° C. 3M): White
Impurity RRT 1.094 (5° C. 3M): 0.149
Impurity RRT 1.437 (5° C. 3M): 0.169
Impurity RRT 1.593 (5° C. 3M): 0.077
Impurity RRT 1.694 (5° C. 3M): 0.056
Total Impurity (5° C. 3M): 1.35
Assay (5° C. 3M, hemi calcium salt): 98.20 % W/W
Highest Impurity (5° C. 3M, hemi calcium salt): 0.469
Impurity RRT 0.935 (5° C. 3M, hemi calcium salt): 0.385
Impurity RRT 1.045 (5° C. 3M, hemi calcium salt): 0.469
Impurity RRT 1.64 (5° C. 3M, hemi calcium salt): 0.047
Water (5° C. 3M, hemi calcium salt): 4.97 % W/W
Description (5° C. 4M): White
Impurity RRT 1.094 (5° C. 4M): 0.169
Impurity RRT 1.437 (5° C. 4M): 0.132
Impurity RRT 1.593 (5° C. 4M): 0.071
Impurity RRT 1.694 (5° C. 4M): 0.071
Assay (5° C. 4M, hemi calcium salt): 98.24 % W/W
Highest Impurity (5° C. 4M, hemi calcium salt): 0.419
Impurity RRT 0.935 (5° C. 4M, hemi calcium salt): 0.419
Impurity RRT 1.045 (5° C. 4M, hemi calcium salt): 0.409
Impurity RRT 1.640 (5° C. 4M, hemi calcium salt): 0.067
Total Impurity (5° C. 4M, hemi calcium salt): 1.338
Water (5° C. 4M, hemi calcium salt): 4.43 % W/W
Description (5° C. 5M): White
Impurity RRT 1.094 (5° C. 5M): 0.105
Impurity RRT 1.437 (5° C. 5M): 0.155
Impurity RRT 1.550 (5° C. 5M): 0.587
Impurity RRT 1.694 (5° C. 5M): 0.045
Assay (5° C. 5M, hemi calcium salt): 98.29 % W/W
Highest Impurity (5° C. 5M, hemi calcium salt): 0.587
Impurity RRT 0.935 (5° C. 5M, hemi calcium salt): 0.289
Impurity RRT 1.045 (5° C. 5M, hemi calcium salt): 0.312
Impurity RRT 1.640 (5° C. 5M, hemi calcium salt): 0.024
Total Impurity (5° C. 5M, hemi calcium salt): 1.517
Water (5° C. 5M, hemi calcium salt): 5.55 % W/W
Description (5° C. 6M): White
Impurity RRT 1.094 (5° C. 6M): 0.153
Impurity RRT 1.437 (5° C. 6M): 0.170
Impurity RRT 1.593 (5° C. 6M): 0.081
Impurity RRT 1.694 (5° C. 6M): 0.070
Water (5° C. 6M): 5.04 % W/W
Assay (5° C. 6M, hemi calcium salt): 98.02 % W/W
Highest Impurity (5° C. 6M, hemi calcium salt): 0.423
Impurity RRT 0.935 (5° C. 6M, hemi calcium salt): 0.423
Impurity RRT 1.045 (5° C. 6M, hemi calcium salt): 0.390
Impurity RRT 1.640 (5° C. 6M, hemi calcium salt): 0.053
Total Impurity (5° C. 6M, hemi calcium salt): 1.340
Description (5° C. 9M): White
Impurity RRT 1.094 (5° C. 9M): 0.161
Impurity RRT 1.180 (5° C. 9M): 0.055
Impurity RRT 1.437 (5° C. 9M): 0.170
Impurity RRT 1.593 (5° C. 9M): 0.065
Impurity RRT 1.694 (5° C. 9M): 0.064
Assay (5° C. 9M, hemi calcium salt): 98.12 % W/W
Highest Impurity (5° C. 9M, hemi calcium salt): 0.407
Impurity RRT 0.935 (5° C. 9M, hemi calcium salt): 0.407
Impurity RRT 1.045 (5° C. 9M, hemi calcium salt): 0.407
Impurity RRT 1.640 (5° C. 9M, hemi calcium salt): 0.033
Total Impurity (5° C. 9M, hemi calcium salt): 1.362
Water (5° C. 9M, hemi calcium salt): 5.07 % W/W
Description (5° C. 12M): White
Impurity RRT 1.094 (5° C. 12M): 0.158
Impurity RRT 1.180 (5° C. 12M): 0.022
Impurity RRT 1.437 (5° C. 12M): 0.152
Impurity RRT 1.593 (5° C. 12M): 0.086
Impurity RRT 1.694 (5° C. 12M): 0.068
Assay (5° C. 12M, hemi calcium salt): 97.78 % W/W
Highest Impurity (5° C. 12M, hemi calcium salt): 0.432
Impurity RRT 0.935 (5° C. 12M, hemi calcium salt): 0.417
Impurity RRT 1.045 (5° C. 12M, hemi calcium salt): 0.432
Impurity RRT 1.640 (5° C. 12M, hemi calcium salt): 0.051
Total Impurity (5° C. 12M, hemi calcium salt): 1.413
Water (5° C. 12M, hemi calcium salt): 5.08 % W/W
Assay (25° C./50% RH 6M): 98.01 % W/W
Description (25° C./50% RH 6M): White
Highest Impurity (25° C./50% RH 6M): 0.390
Impurity RRT 0.935 (25° C./50% RH 6M): 0.390
Impurity RRT 1.045 (25° C./50% RH 6M): 0.370
Impurity RRT 1.094 (25° C./50% RH 6M): 0.140
Impurity RRT 1.437 (25° C./50% RH 6M): 0.117
Impurity RRT 1.593 (25° C./50% RH 6M): 0.073
Impurity RRT 1.640 (25° C./50% RH 6M): 0.048
Impurity RRT 1.694 (25° C./50% RH 6M): 0.074
Total Impurity (25° C./50% RH 6M): 1.212
Water (25° C./50% RH 6M): 5.41 % W/W
Description (25° C./60% RH 3M): White
Impurity RRT 1.094 (25° C./60% RH 3M): 0.153
Impurity RRT 1.437 (25° C./60% RH 3M): 0.155
Impurity RRT 1.593 (25° C./60% RH 3M): 0.079
Impurity RRT 1.694 (25° C./60% RH 3M): 0.064
Assay [1]: 98.21 % W/W
Highest Impurity [1]: 0.388
Impurity RRT 0.935 [1]: 0.368
Impurity RRT 1.045 [1]: 0.382
Impurity RRT 1.64 [1]: 0.047
Total Impurity [1]: 1.270
Water [1]: 4.03 % W/W
Description (25° C./60% RH 9M): White
Impurity RRT 1.094 (25° C./60% RH 9M): 0.141
Impurity RRT 1.437 (25° C./60% RH 9M): 0.162
Impurity RRT 1.593 (25° C./60% RH 9M): 0.076
Impurity RRT 1.694 (25° C./60% RH 9M): 0.068
Assay [2]: 98.09 % W/W
Highest Impurity [2]: 0.376
Impurity RRT 0.935 [2]: 0.374
Impurity RRT 1.045 [2]: 0.376
Impurity RRT 1.640 [2]: 0.046
Total Impurity [2]: 1.243
Water [2]: 5.04 % W/W
Description (25° C./60% RH 12M): White
Impurity RRT 1.094 (25° C./60% RH 12M): 0.153
Impurity RRT 1.180 (25° C./60% RH 12M): 0.019
Impurity RRT 1.437 (25° C./60% RH 12M): 0.145
Impurity RRT 1.593 (25° C./60% RH 12M): 0.083
Impurity RRT 1.694 (25° C./60% RH 12M): 0.059
Assay (25° C./60% RH 12M, hemi calcium salt): 97.95 % W/W
